Values quoted from earlier work in US20030056236A1, “Model” (priority 2001, published 2003).

Test system: 5-HIAA levels
Details: after treatment; for elevate 5-HIAA levels: rat medial prefrontal cortex; for effect on 5-HIAA levels in the striatum: rat striatum

Row | Structure (SMILES) | elevate 5-HIAA levels | effect on 5-HIAA levels in the striatum
1 | CCNC(=O)N1CCN(CCCC(c2ccc(F)cc2)c2ccc(F)cc2)CC1 [amperozide] | elevate | no effect
2 | Cc1nc2n(c(=O)c1CCN1CCC(c3noc4cc(F)ccc34)CC1)CCCC2 [Risperidone] | elevate | no effect
3 | Cc1nc2sccn2c(=O)c1CCN1CCC(=C(c2ccc(F)cc2)c2ccc(F)cc2)CC1 [ritanserin] | to a lesser extent | no effect
